# Calls of active or inactive are those of the source. The calls are words filed in the database; no cut-off is given here.
# Experiments:
# DNA [1] = assay: Binding affinity to Bos taurus (calf) thymus DNA assessed as positive band intensity at 100 uM after 24 hr by CD spectra analysis (reference value: 21429 +/- 276 deg cm2/dmol'-1); assay type: nucleic-acid assay
# DNA [2] = assay: Binding affinity to Bos taurus (calf) thymus DNA assessed as hypsochromic shift at 20 uM by UV spectra analysis; assay type: nucleic-acid assay
# DNA [3] = assay: Binding affinity to Bos taurus (calf) thymus DNA assessed as hypochromic effect at 20 uM by UV spectra analysis; assay type: nucleic-acid assay
# CCRF S-180 = assay: Antitumor activity against Mus musculus (mouse) S180 cells xenografted in ICR Mus musculus (mouse) assessed as tumor growth inhibition at 89 umol/kg, ip qd for 7 days measured after 24 hr of last dose relative to control; assay type: functional; details: CCRF S-180, ip, read-out: TGI
# DNA [4] = assay: Binding affinity to Bos taurus (calf) thymus DNA assessed as negative band intensity at 100 uM after 24 hr by CD spectra analysis (reference value: -15209 +/- 245 deg cm2/dmol'-1); assay type: nucleic-acid assay
# DNA [5] = assay: Binding affinity to Bos taurus (calf) thymus DNA assessed as change melting temperature at 20 uM; assay type: nucleic-acid assay
# DNA [6] = assay: Binding affinity to Bos taurus (calf) thymus DNA assessed as melting temperature at 20 uM (reference value: 60.3 degC); assay type: nucleic-acid assay
# DNA [7] = assay: Binding affinity to Bos taurus (calf) thymus DNA assessed as change in DNA viscosity; assay type: nucleic-acid assay
# DNA [8] = assay: Binding affinity to Bos taurus (calf) thymus DNA assessed as bathochromic shift at 0.5 uM by fluorescence quenching assay; assay type: nucleic-acid assay
# DNA [9] = assay: Binding affinity to Bos taurus (calf) thymus DNA assessed as decrease in fluorescence intensity at 0.5 uM by fluorescence quenching assay; assay type: nucleic-acid assay; design: scale not given: the % may be the effect or the level left
molecular ellipticity (DNA [1]) [deg.cm2/dmol],Activity (DNA [2]) [nm],Activity (DNA [3]) [%],molecular ellipticity (DNA [4]) [deg.cm2/dmol],ΔTm (DNA [5]) [°C],Tm (DNA [6]) [°C],Activity (DNA [7]),Activity (DNA [8]) [nm],Activity (DNA [9]) [%],SMILES,inhibition in vivo at 89 µmol/kg (CCRF S-180) [%]
10100,4.8,29.6,-23700,10.8,71.1,Active,4.6,42.4,O=C(O)c1cc2c3ccccc3n(Cc3ccccc3)c2c(CCN[C@@H](CO)C(=O)O)n1,35.3
2750,3.4,32,-36300,12.9,73.2,Active,8.2,63.9,O=C(O)C[C@H](NCCc1nc(C(=O)O)cc2c3ccccc3n(Cc3ccccc3)c12)C(=O)O,34.7

# Further lines, the compound ahead of its results:
SMILES,molecular ellipticity (DNA [1]) [deg.cm2/dmol],Activity (DNA [2]) [nm],Activity (DNA [3]) [%],molecular ellipticity (DNA [4]) [deg.cm2/dmol],ΔTm (DNA [5]) [°C],Tm (DNA [6]) [°C],Activity (DNA [7]),Activity (DNA [8]) [nm],Activity (DNA [9]) [%],inhibition in vivo at 89 µmol/kg (CCRF S-180) [%]
Nc1ccn([C@@H]2O[C@H](CO)[C@@H](O)[C@@H]2O)c(=O)n1 [CYTARABINE],,,,,,,,,,54.8
C[C@@H](O)[C@H](NCCc1nc(C(=O)O)cc2c3ccccc3n(Cc3ccccc3)c12)C(=O)O,17400,0,0,-5800,4.9,65.4,Active,2.2,32.6,-29.1
O=C(O)c1cc2c3ccccc3n(Cc3ccccc3)c2c(CCN[C@@H](Cc2ccc(O)cc2)C(=O)O)n1,28900,4.8,30.5,-1080,11.9,72.2,Active,4.4,58.7,48.6
